Laboratory results taken from US8466181B2, “1,2,3-triazole-imidazole compounds” (Hoffmann-La Roche Inc., priority 2010, dated 2013).

Molecular target: T1, human GABA A receptor α5β3γ2 (GABA Aa5) (Homo sapiens, UniProt P18507+P31644)
T1 construct: expressed in transfected cells; host or cells: HEK293 cells, transiently transfected; membranes prepared
Test: [3H]flumazenil competition binding, HEK293 cells expressing human receptors
Details: displacement of [3H]flumazenil 0.5 nM; HEK293 transiently transfected human receptors; means of two determinations; read-out: hKi (GABA Aa5)
Method: The ability of compounds present invention to bind to GABA A receptor subtypes was determined by competition for [^3H]flumazenil (85 Ci/mmol; Roche) binding to HEK293 cells expressing rat (stably transfected) or human (transiently transfected) receptors of composition α1β2/3γ2, α2β3γ2, α3β3γ2 and α5β3γ2.
Cell pellets were suspended in Krebs-tris buffer (4.8 mM KCl, 1.2 mM CaCl2, 1.2 mM MgCl2, 120 mM NaCl, 15 mM Tris; pH 7.5; binding assay buffer), homogenized by polytron for ca. 20 sec on ice and centrifuged for 60 min at 4° C. (50000 g; Sorvall, rotor: SM24=20000 rpm). The cell pellets were resuspended in Krebs-tris buffer and homogenized by polytron for ca. 15 sec on ice. Protein was measured (Bradford method, Bio-Rad) and aliquots of 1 mL were prepared and stored at −80° C.
Assays were incubated to equilibrium for 1 hour at 4° C. and harvested onto GF/C uni-filters (Packard) by filtration using a Packard harvester and washing with ice-cold wash buffer (50 mM Tris; pH 7.5). After drying, filter-retained radioactivity was detected by liquid scintillation counting.
Ki values were calculated using Excel-Fit (Microsoft) and are the means of two determinations.
Representative test results, obtained by the above described assay measuring binding affinity to HEK293 cells expressing human (h) receptors, are shown in Table 1 below.

| Ki [nM] | SMILES |
| --- | --- |
| 10.9 | Cc1nnn(-c2ccccc2F)c1-c1cn(-c2ccc(C(=O)NC3CC3)cn2)cn1 [Example 52, N-Cyclopropyl-6-(4-(1-(2-fluorophenyl)-4-methyl-1H-1,2,3-triazol-5-yl)-1H-imidazol-1-yl)nicotinamide] |
| 3.2 | Cc1nnn(-c2ccc(F)cc2)c1-c1cn(-c2ccc(C(=O)NC3CC3)cn2)cn1 [Example 42, N-Cyclopropyl-6-(4-(1-(4-fluorophenyl)-4-methyl-1H-1,2,3-triazol-5-yl)-1H-imidazol-1-yl)nicotinamide] |
| 29 | Cc1nnn(-c2ccc(F)cc2)c1-c1cn(-c2ccc(C(=O)N3CCS(=O)(=O)CC3)cn2)cn1 [Example 44, (1,1-Dioxo-1,6-thiomorpholin-4-yl)-(6-{4-[3-(4-fluoro-phenyl)-5-methyl-3H-[1,2,3]triazol-4-yl]-imidazol-1-yl}-pyridin-3-yl)-methanone] |
| 32.7 | Cc1nnn(-c2ccccc2F)c1-c1cn(-c2ccc(C(=O)NCC3CC3)cn2)cn1 [Example 53, N-(Cyclopropylmethyl)-6-(4-(1-(2-fluorophenyl)-4-methyl-1H-1,2,3-triazol-5-yl)-1H-imidazol-1-yl)nicotinamide] |
| 9.6 | Cc1nnn(-c2ccc(F)cc2)c1-c1cn(-c2ccc(C(=O)NC3(C)COC3)cn2)cn1 [Example 38, 6-(4-(1-(4-Fluorophenyl)-4-methyl-1H-1,2,3-triazol-5-yl)-1H-imidazol-1-yl)-N-(3-methyloxetan-3-yl)nicotinamide] |
| 12.6 | Cc1nnn(-c2ccc(F)cc2)c1-c1cn(-c2ccc(C(N)=O)cn2)cn1 [Example 40, 6-(4-(1-(4-Fluorophenyl)-4-methyl-1H-1,2,3-triazol-5-yl)-1H-imidazol-1-yl)nicotinamide] |
| 25.9 | Cc1nnn(-c2ccc(F)cc2)c1-c1cn(-c2ccc(C(=O)NC3CCOCC3)cn2)cn1 [Example 37, 6-{4-[3-(4-Fluoro-phenyl)-5-methyl-3H-[1,2,3]triazol-4-yl]-imidazol-1-yl}-N-(tetrahydropyran-4-yl)-nicotinamide] |
| 9.5 | Cn1nnc(-c2ccccc2F)c1-c1cn(-c2ccc(C(=O)NC3CC3)cn2)cn1 [Example 29, N-Cyclopropyl-6-(4-(4-(2-fluorophenyl)-1-methyl-1H-1,2,3-triazol-5-yl)-1H-imidazol-1-yl)nicotinamide] |
| 17.8 | Cc1nnn(-c2ccccc2F)c1-c1cn(-c2ccc(C(N)=O)cn2)cn1 [Example 48, 6-(4-(1-(2-Fluorophenyl)-4-methyl-1H-1,2,3-triazol-5-yl)-1H-imidazol-1-yl)nicotinamide] |
| 49 | Cc1nnn(-c2ccccc2F)c1-c1cn(-c2ccc(C(=O)NC3CCOCC3)cn2)cn1 [Example 46, 6-(4-(1-(2-Fluorophenyl)-4-methyl-1H-1,2,3-triazol-5-yl)-1H-imidazol-1-yl)-N-(tetrahydro-2H-pyran-4-yl)nicotinamide] |
| 25.9 | CC(=O)c1ccc(-n2cnc(-c3c(C)nnn3-c3ccc(F)cc3)c2)cc1 [Example 32, 1-(4-{4-[3-(4-Fluoro-phenyl)-5-methyl-3H-[1,2,3]triazol-4-yl]-imidazol-1-yl}-phenyl)-ethanone] |
| 20.8 | Cc1nnn(-c2ccc(F)cc2)c1-c1cn(-c2ccc(C(=O)NC(C)(C)CO)cn2)cn1 [Example 41, 6-(4-(1-(4-Fluorophenyl)-4-methyl-1H-1,2,3-triazol-5-yl)-1H-imidazol-1-yl)-N-(1-hydroxy-2-methylpropan-2-yl)nicotinamide] |
| 26.3 | COC(=O)c1ccc(-n2cnc(-c3c(C)nnn3-c3ccc(F)cc3)c2)nc1 [Example 35, Methyl 6-(4-(1-(4-fluorophenyl)-4-methyl-1H-1,2,3-triazol-5-yl)-1H-imidazol-1-yl)nicotinate] |

Second part, the molecule before the results:

| SMILES | Ki [nM] |
| --- | --- |
| Cn1nnc(-c2ccccc2F)c1-c1cn(-c2ccc(C(N)=O)cn2)cn1 [Example 25, 6-(4-(4-(2-Fluorophenyl)-1-methyl-1H-1,2,3-triazol-5-yl)-1H-imidazol-1-yl)nicotinamide] | 19.3 |
| Cn1nnc(-c2ccc(F)cc2)c1-c1cn(-c2ccc(C(F)(F)F)cn2)cn1 [Example 15, 2-{4-[5-(4-Fluoro-phenyl)-3-methyl-3H-[1,2,3]triazol-4-yl]-imidazol-1-yl}-5-trifluoromethyl-pyridine] | 82.2 |
| Cn1nnc(-c2ccccc2F)c1-c1cn(-c2ccc(C(=O)NC3CCOCC3)cn2)cn1 [Example 22, 6-(4-(4-(2-Fluorophenyl)-1-methyl-1H-1,2,3-triazol-5-yl)-1H-imidazol-1-yl)-N-(tetrahydro-2H-pyran-4-yl)nicotinamide] | 43.3 |
| CC(C)NC(=O)c1ccc(-n2cnc(-c3c(-c4ccc(F)cc4)nnn3C)c2)nc1 [Example 11, 6-{4-[5-(4-Fluoro-phenyl)-3-methyl-3H-[1,2,3]triazol-4-yl]-imidazol-1-yl}-N-isopropyl-nicotinamide] | 14.7 |
| Cn1nnc(-c2ccccc2F)c1-c1cn(-c2ccc(C(F)(F)F)cn2)cn1 [Example 30, 2-(4-(4-(2-Fluorophenyl)-1-methyl-1H-1,2,3-triazol-5-yl)-1H-imidazol-1-yl)-5-(trifluoromethyl)pyridine] | 65 |
| CC(C)NC(=O)c1ccc(-n2cnc(-c3c(-c4ccccc4F)nnn3C)c2)nc1 [Example 23, 6-(4-(4-(2-Fluorophenyl)-1-methyl-1H-1,2,3-triazol-5-yl)-1H-imidazol-1-yl)-N-isopropylnicotinamide] | 54.9 |
| Cn1nnc(-c2ccccc2Cl)c1-c1cn(-c2ccc(C(N)=O)cn2)cn1 [Example 19, 6-(4-(4-(2-Chlorophenyl)-1-methyl-1H-1,2,3-triazol-5-yl)-1H-imidazol-1-yl)nicotinamide] | 66.2 |
| Cn1nnc(-c2ccc(F)cc2)c1-c1cn(-c2ccc(C(=O)N3CC4(COC4)C3)cc2)cn1 [Example 6, (4-{4-[5-(4-Fluoro-phenyl)-3-methyl-3H-[1,2,3]triazol-4-yl]-imidazol-1-yl}-phenyl)-(2-oxa-6-aza-spiro[3.3]hept-6-yl)-methanone] | 51.3 |
| Cc1nnn(-c2ccccc2F)c1-c1cn(-c2ccc(C(=O)NC3(C)COC3)cn2)cn1 [Example 50, 6-(4-(1-(2-Fluorophenyl)-4-methyl-1H-1,2,3-triazol-5-yl)-1H-imidazol-1-yl)-N-(3-methyloxetan-3-yl)nicotinamide] | 17.9 |
| COC(=O)c1ccc(-n2cnc(-c3c(-c4ccc(F)cc4)nnn3C)c2)cc1 [Example 2, 4-{4-[5-(4-Fluoro-phenyl)-3-methyl-3H-[1,2,3]triazol-4-yl]-imidazol-1-yl}-benzoic acid methyl ester] | 41.2 |
| COC(=O)c1ccc(-n2cnc(-c3c(-c4ccccc4F)nnn3C)c2)nc1 [Example 20, Methyl 6-(4-(4-(2-fluorophenyl)-1-methyl-1H-1,2,3-triazol-5-yl)-1H-imidazol-1-yl)nicotinate] | 16.2 |
| Cn1nnc(-c2ccc(F)cc2)c1-c1cn(-c2ccc(C(=O)N3CC4(COC4)C3)cn2)cn1 [Example 14, (6-{4-[5-(4-Fluoro-phenyl)-3-methyl-3H-[1,2,3]triazol-4-yl]-imidazol-1-yl}-pyridin-3-yl)-(2-oxa-6-aza-spiro[3.3]hept-6-yl)-methanone] | 37.6 |
| Cn1nnc(-c2ccc(F)cc2)c1-c1cn(-c2ccc(C(=O)NC3CCOCC3)cc2)cn1 [Example 4, 4-{4-[5-(4-Fluoro-phenyl)-3-methyl-3H-[1,2,3]triazol-4-yl]-imidazol-1-yl}-N-(tetrahydropyran-4-yl)-benzamide] | 36.6 |
| Cn1nnc(-c2ccc(F)cc2)c1-c1cn(-c2ccc(C(=O)NC3(C)COC3)cn2)cn1 [Example 13, 6-{4-[5-(4-Fluoro-phenyl)-3-methyl-3H-[1,2,3]triazol-4-yl]-imidazol-1-yl}-N-(3-methyl-oxetan-3-yl)-nicotinamide] | 14.6 |
| Cc1nnn(-c2ccccc2F)c1-c1cn(-c2ccc(C(=O)NC(C)(C)CO)cn2)cn1 [Example 47, 6-(4-(1-(2-Fluorophenyl)-4-methyl-1H-1,2,3-triazol-5-yl)-1H-imidazol-1-yl)-N-(1-hydroxy-2-methylpropan-2-yl)nicotinamide] | 51.7 |
| Cn1nnc(-c2ccc(F)cc2)c1-c1cn(-c2ccc(C(=O)NC3(C)COC3)cc2)cn1 [Example 5, 4-{4-[5-(4-Fluoro-phenyl)-3-methyl-3H-[1,2,3]triazol-4-yl]-imidazol-1-yl}-N-(3-methyl-oxetan-3-yl)-benzamide] | 23.8 |
| Cn1nnc(-c2ccccc2F)c1-c1cn(-c2ccc(C(=O)NN3CCOCC3)cn2)cn1 [Example 28, 6-(4-(4-(2-Fluorophenyl)-1-methyl-1H-1,2,3-triazol-5-yl)-1H-imidazol-1-yl)-N-morpholinonicotinamide] | 32.4 |
| Cn1nnc(-c2ccc(F)cc2)c1-c1cn(-c2ccc(C(N)=O)cn2)cn1 [Example 16, 6-(4-(4-(4-Fluorophenyl)-1-methyl-1H-1,2,3-triazol-5-yl)-1H-imidazol-1-yl)nicotinamide] | 12.1 |
| Cn1nnc(-c2ccccc2F)c1-c1cn(-c2ccc(C(=O)NCC(C)(C)O)cn2)cn1 [Example 24, 6-(4-(4-(2-Fluorophenyl)-1-methyl-1H-1,2,3-triazol-5-yl)-1H-imidazol-1-yl)-N-(2-hydroxy-2-methylpropyl)nicotinamide] | 21.3 |
